Experiment [1] has as its target GST-tagged K-Ras mutant / His-tagged hSOS1 (Homo sapiens, UniProt P01116). In words: HTRF assay, K-Ras mutant / SOS1 interaction. The class given is binding. The note with it: read-out: IC50 against mutant Kras. The method, boiled down:
(§1)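 Tagged proteins: GST-K-Ras (wt or mutant), His-hSOS1; labels anti-GST-Eu/anti-6His-XL665; HEPES pH 7.4 buffer with DTT, BSA, Igepal. Read ≥10 min post-mix at ex 337 nm; IC50 from ratiometric data, duplicates.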

A further experiment addresses T1, wildtype Kras / hSOS1 (Homo sapiens, UniProt P01116).
T1 construct: made in house; host or cells: E. coli BL21 (DE3)
Kind of experiment: HTRF assay, wildtype Kras / SOS1 interaction. The class given is binding. The following applies: read-out: IC50 against wildtype Kras. In short, it runs like this: as §1

The mark [2] stands for this setting: compound nos. 102-196, general methodology of example 5.
Setting [3] is: compound nos. 201-213, general methodology of example 5.

Each structure is given as a SMILES string. Like-named read-outs stand apart in the source and are kept apart here.

Chain of GST-tagged K-Ras mutant / His-tagged hSOS1 (P01116 whole entry G12D, form open): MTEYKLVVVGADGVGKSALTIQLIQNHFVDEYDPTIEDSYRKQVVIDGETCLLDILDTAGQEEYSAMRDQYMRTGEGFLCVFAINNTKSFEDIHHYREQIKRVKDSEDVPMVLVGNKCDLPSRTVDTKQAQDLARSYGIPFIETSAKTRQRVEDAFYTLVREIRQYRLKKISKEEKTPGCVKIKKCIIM
T1 sequence (P01116 1-188 isoform P01116-2): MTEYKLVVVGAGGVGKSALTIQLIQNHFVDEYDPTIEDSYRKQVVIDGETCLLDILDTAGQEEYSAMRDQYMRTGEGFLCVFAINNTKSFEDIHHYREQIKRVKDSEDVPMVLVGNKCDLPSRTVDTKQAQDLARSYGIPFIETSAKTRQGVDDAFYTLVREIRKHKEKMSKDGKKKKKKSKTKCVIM

`N#Cc1c(N)sc2c(F)ccc(-c3c(Cl)cc4c(N5C[C@H]6CC[C@@H](C5)N6C5CCOCC5)nc(OC[C@@]56CCCN5C[C@H](F)C6)nc4c3F)c12` [Compound 679, 2-amino-4-(6-chloro-8-fluoro-2-(((2R,7aS)-2-fluorotetrahydro-1H-pyrrol-izin-7a(5H)-yl)methoxy)-4-((1R,5S)-8-(tetrahydro-2H-pyran-4-yl)-3,8-diaza-bicyclo[3.2.1]octan-3-yl)-quinazolin-7-yl)-7-fluoro-benzo[b]thiophene-3-carbonitrile]: the figures for the IC50 (in experiment [1] (compound nos. 401-703); on wildtype Kras / hSOS1 (compound nos. 401-703)) were less than 0.5 µM and more than 0.5 µM, respectively.
Consider `Nc1nc2c(-c3c(Cl)cc4c(N5CCCOCC5)nc(OCC56CCCN5CCC6)nc4c3F)ccc(F)c2s1` [Compound 148, 4-(6-chloro-8-fluoro-4-(1,4-oxazepan-4-yl)-2-((tetra-hydro-1H-pyrrolizin-7a(5H)-yl)methoxy)quinazolin-7-yl)-7-fluorobenzo[d]thiazol-2-amine], for which the IC50 (in experiment [1] (setting [2]); at wildtype Kras / hSOS1 (setting [2])) was less than 0.5 µM each time.
As to `Nc1nc2c(-c3c(Cl)cc4c(N5CCN(S(=O)(=O)C6CC6)CC(F)(F)C5)nc(OC[C@@]56CCCN5C[C@H](F)C6)nc4c3F)ccc(F)c2s1` [Compound 576], the IC50 (commonly the concentration needed to halve the response being measured) in experiment [1] (compound nos. 401-703) is less than 0.5 µM; on wildtype Kras / hSOS1 (compound nos. 401-703) it was more than 0.5 µM.
Turning to `Fc1c(Br)c(Cl)cc2c(N3CCNCC(F)(F)C3)nc(OCC34CCCN3CCC4)nc12` [Compound 599, 7-bromo-6-chloro-4-(6,6-difluoro-1,4-diazepan-1-yl)-8-fluoro-2-((tetrahydro-1H-pyrrolizin-7a(5H)-yl)meth-oxy)quinazoline], the IC50 (in experiment [1] (compound nos. 401-703); at wildtype Kras / hSOS1 (compound nos. 401-703)) was more than 0.5 µM throughout.
`Cc1ccc2cn[nH]c2c1-c1c(Cl)cc2c(N3CC4CCC(C3)N4)nc(OC[C@@]34CCCN3C[C@H](F)C4)nc2c1F` [Compound 611, 4-(3,8-diazabicyclo[3.2.1]-octan-3-yl)-6-chloro-8-fluoro-2-(((2R,7aS)-2-fluorotetrahydro-1H-pyrrol-izin-7a(5H)-yl)methoxy)-7-(6-methyl-1H-indazol-7-yl)-quinazoline]: the IC50 (in experiment [1] (compound nos. 401-703); at wildtype Kras / hSOS1 (compound nos. 401-703)) was more than 0.5 µM in each case.
Take `Nc1nc2c(-c3cc4ncnc(N5CC6CCC(C5)N6)c4cc3Cl)ccc(F)c2s1` [Compound 635, 4-(4-(3,8-diazabicyclo-[3.2.1]octan-3-yl)-6-chloro-quinazolin-7-yl)-7-fluoro-benzo[d]thiazol-2-amine]: the IC50 (in experiment [1] (compound nos. 401-703); at wildtype Kras / hSOS1 (compound nos. 401-703)) was more than 0.5 µM in each case.
With `Nc1nc2c(-c3c(Cl)cc4c(N5CC6COCC(C5)N6)nc(OC[C@@]56CCCN5C[C@H](F)C6)nc4c3F)ccc(F)c2s1` [Compound 547, 4-(4-(3-oxa-7,9-diaza-bicyclo[3.3.1]nonan-7-yl)-6-chloro-8-fluoro-2-(((2R,7aS)-2-fluorotetra-hydro-1H-pyrrolizin-7a(5H)-yl)methoxy)quinazolin-7-yl)-7-fluorobenzo[d]thiazol-2-amine], the figures for the IC50 (in experiment [1] (compound nos. 401-703); at wildtype Kras / hSOS1 (compound nos. 401-703)) were less than 0.5 µM and more than 0.5 µM, respectively.
Taken in the same sequence, the figures for `Cc1ccc2cnn(C#N)c2c1-c1c(Cl)cc2c(N3CC4CCC(C3)N4)nc(OC[C@@]34CCCN3C[C@H](F)C4)nc2c1F` [Compound 678, 7-(4-(3,8-diazabicyclo-[3.2.1]octan-3-yl)-6-chloro-8-fluoro-2-(((2R,7aS)-2-fluorotetrahydro-1H-pyrrol-izin-7a(5H)-yl)methoxy)-quinazolin-7-yl)-6-methyl-1H-indazole-1-carbonitrile] were more than 0.5 µM and more than 0.5 µM.
With `Nc1nc2c(-c3c(Cl)cc4c(N5C[C@H]6CC[C@@H](C5)N6)nc(OCC5(CN6CCCC6)CC5)nc4c3F)cccc2o1` [Compound 212, 4-(4-((1R,5S)-3,8-diaza-bicyclo[3.2.1]octan-3-yl)-6-chloro-8-fluoro-2-((1-(pyrrolidin-1-ylmethyl)-cyclopropyl)methoxy)quin-azolin-7-yl)benzo[d]oxazol-2-amine], the IC50 (in experiment [1] (setting [3]); at wildtype Kras / hSOS1 (setting [3])) was less than 1.5 µM in each case.
Turning to `Nc1nc2c(-c3c(Cl)cc4c(N5CC6CC5CCN6)nc(OC[C@@]56CCCN5C[C@H](F)C6)nc4c3F)ccc(F)c2s1` (stereo partly drawn) [Compound 686, 4-(4-(2,6-diazabicyclo-[3.2.1]octan-6-yl)-6-chloro-8-fluoro-2-(((2R,7aS)-2-fluorotetrahydro-1H-pyrrol-izin-7a(5H)-yl)methoxy)-quinazolin-7-yl)-7-fluoro-benzo[d]thiazol-2-amine], the IC50 in experiment [1] (compound nos. 401-703) was less than 0.5 µM; on wildtype Kras / hSOS1 (compound nos. 401-703), more than 0.5 µM.
In the case of `CN1CCC[C@H]1COc1nc(N2CCNCC(F)(F)C2)c2cc(Cl)c(-c3cccc4sc(N)nc34)c(OCc3ccccn3)c2n1` [Compound 155, 4-(6-chloro-4-(6,6-difluoro-1,4-diazepan-1-yl)-2-(((S)-1-methylpyrrolidin-2-yl)-methoxy)-8-(pyridin-2-yl-methoxy)quinazolin-7-yl)-benzo[d]thiazol-2-amine], the IC50 (in experiment [1] (setting [2]); at wildtype Kras / hSOS1 (setting [2])) was more than 0.5 µM throughout.
`Cc1ccc2cnn(C)c2c1-c1c(Cl)cc2c(N3CC4CCC(C3)N4)nc(OCC3(CN4CCCC4)CC3)nc2c1F` [Compound 438, 4-(3,8-diazabicyclo[3.2.1]-octan-3-yl)-6-chloro-7-(1,6-dimethyl-1H-indazol-7-yl)-8-fluoro-2-((1-(pyrrolidin-1-ylmethyl)cyclopropyl)meth-oxy)quinazoline]: the results for the concentration for half-maximal inhibition (IC50) (in experiment [1] (compound nos. 401-703); on wildtype Kras / hSOS1 (compound nos. 401-703)) were more than 0.5 µM and less than 0.5 µM, respectively.
Taken in the same sequence, the figures for `CN(C)CC1(COc2nc(N3CC4CCC(C3)N4)c3ccc(-c4ccc(F)c5sc(N)nc45)c(F)c3n2)CC1` [Compound 428, 4-(4-(3,8-diazabicyclo-[3.2.1]-octan-3-yl)-2-((1-((dimethylamino)methyl)-cyclopropyl)methoxy)-8-fluoroquinazolin-7-yl)-7-fluorobenzo[d]thiazol-2-amine] were more than 0.5 µM and less than 0.5 µM.
Taken in the same sequence, the figures for `Nc1nc2c(-c3c(Cl)cc4c(N5CC6CCC(C5)N6)nc(OCC56CCCC5CCC6)nc4c3F)cccc2s1` (stereo not drawn) [Compound 571, 4-(4-(3,8-diazabicyclo-[3.2.1]octan-3-yl)-6-chloro-8-fluoro-2-((hexahydro-pentalen-3a(1H)-yl)meth-oxy)quinazolin-7-yl)benzo-[d]thiazol-2-amine] were more than 0.5 µM and more than 0.5 µM.
Taken in the same sequence, the figures for `N#Cc1c(N)sc2cc(F)cc(-c3c(Cl)cc4c(N5CC6CCC(C5)N6)nc(OC[C@@]56CCCN5C[C@H](F)C6)nc4c3F)c12` [Compound 476, 4-(4-(3,8-diazabicyclo-[3.2.1]octan-3-yl)-6-chloro-8-fluoro-2-(((2R,7aS)-2-fluorotetrahydro-1H-pyrrolizin-7a(5H)-yl)meth-oxy)quinazolin-7-yl)-2-amino-6-fluorobenzo[b]-thiophene-3-carbonitrile] were less than 0.5 µM and less than 0.5 µM.
For the compound `Nc1nc2c(-c3c(Cl)cc4c(N5CCCC(O)CC5)nc(OC[C@@]56CCCN5C[C@H](F)C6)nc4c3F)ccc(F)c2s1` (stereo partly drawn) [Compound 407, 1-(7-(2-amino-7-fluoro-benzo[d]thiazol-4-yl)-6-chloro-8-fluoro-2-(((2R,7aS)-2-fluorotetrahydro-1H-pyr-rolizin-7a(5H)-yl)methoxy)-quinazolin-4-yl)azepan-4-ol], the IC50 (in experiment [1] (compound nos. 401-703); on wildtype Kras / hSOS1 (compound nos. 401-703)) was less than 0.5 µM throughout.
Regarding `N#CC1C2CCC1CN(c1nc(OC[C@@]34CCCN3C[C@H](F)C4)nc3c(F)c(-c4ccc(F)c5sc(N)nc45)c(Cl)cc13)C2` (stereo partly drawn) [Compound 403, (1R,5S,8S)-3-(7-(2-amino-7-fluorobenzo[d]thiazol-4-yl)-6-chloro-8-fluoro-2-(((2R,7aS)-2-fluorotetra-hydro-1H-pyrrolizin-7a(5H)-yl)methoxy)quinazolin-4-yl)-3-azabicyclo[3.2.1]-octane-8-carbonitrile], the IC50 (in experiment [1] (compound nos. 401-703); at wildtype Kras / hSOS1 (compound nos. 401-703)) was less than 0.5 µM throughout.
With `Cc1ccc2cnn(C)c2c1-c1c(Cl)cc2c(N3CCNCC(F)(F)C3)nc(OC[C@@]34CCCN3C[C@H](F)C4)nc2c1F` [Compound 175, 6-chloro-4-(6,6-difluoro-1,4-diazepan-1-yl)-7-(1,6-dimethyl-1H-indazol-7-yl)-8-fluoro-2-(((2R,7aS)-2-fluorotetrahydro-1H-pyrrolizin-7a(5H)-yl)meth-oxy)quinazoline], the IC50 (in experiment [1] (setting [2]); on wildtype Kras / hSOS1 (setting [2])) was less than 0.5 µM in each case.
As to `N#Cc1c(N)sc2c(F)ccc(-c3c(Cl)cc4c(N5CCNCC(F)(F)C5)nc(OC[C@@]56CCCN5C[C@H](F)C6)nc4c3F)c12` [Compound 405, 2-amino-4-(6-chloro-4-(6,6-difluoro-1,4-diazepan-1-yl)-8-fluoro-2-(((2R,7aS)-2-fluorotetrahydro-1H-pyr-rolizin-7a(5H)-yl)methoxy)-quinazolin-7-yl)-7-fluoro-benzo[b]thiophene-3-carbonitrile], the IC50 is more than 0.5 µM in experiment [1] (compound nos. 401-703) and less than 0.5 µM at wildtype Kras / hSOS1 (compound nos. 401-703).
Taken in the same sequence, the figures for `Nc1nc2c(-c3c(Cl)cc4c(N5CCC[C@@H](O)CC5)nc(OC[C@@]56CCCN5C[C@H](F)C6)nc4c3F)ccc(F)c2s1` [Compound 480, (4R)-1-(7-(2-amino-7-fluorobenzo[d]thiazol-4-yl)-6-chloro-8-fluoro-2-(((2R,7aS)-2-fluorotetra-hydro-1H-pyrrolizin-7a(5H)-yl)methoxy)quinazolin-4-yl)azepan-4-ol] were less than 0.5 µM and less than 0.5 µM.
Taken in the same sequence, the figures for `Nc1nc2ccccc2n1-c1ccc2c(N3CC4CCC(C3)N4)nc(OCC34CCCN3CCC4)nc2c1F` [Compound 525, 1-(4-(3,8-diazabicyclo-[3.2.1]octan-3-yl)-8-fluoro-2-((tetrahydro-1H-pyrrol-izin-7a(5H)-yl)methoxy)-quin-azolin-7-yl)-1H-benzo-[d]imidazol-2-amine] were more than 0.5 µM and more than 0.5 µM.
